Assay results taken from patent publication US8192962B2, “Processes for detecting toxic substances” (Daikin Industries, Ltd., priority 2001, dated 2012).

Tested on: Unknown protein yeast genes
Experiment: DNA chip mRNA expression in yeast, unknown protein yeast genes (Table 1)
Assay type: cell-based, Saccharomyces cerevisiae S288C
How it was run: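 In this screen, yeast in logarithmic growth are challenged for two hours with a toxic substance at a non-lethal inhibitory concentration. Their mRNA, converted to Cy3- or Cy5-labeled cDNA, hybridizes at 65° C. to a chip spanning every yeast gene, and expression is expressed as a ratio to untreated cells.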

Na2As [(1)]
The level of expressed mRNA in the presence of chemical substance/The level of expressed mRNA in the absence of chemical substance (yeast gene YKL195W, incubated two hours with chemical substance): 0.8
The level of expressed mRNA in the presence of chemical substance/The level of expressed mRNA in the absence of chemical substance (yeast gene YKR091W, incubated two hours with chemical substance): 1.5
The level of expressed mRNA in the presence of chemical substance/The level of expressed mRNA in the absence of chemical substance (yeast gene YLR054C, incubated two hours with chemical substance): 2.0
The level of expressed mRNA in the presence of chemical substance/The level of expressed mRNA in the absence of chemical substance (yeast gene YLR149C, incubated two hours with chemical substance): 1.4
The level of expressed mRNA in the presence of chemical substance/The level of expressed mRNA in the absence of chemical substance (yeast gene YLR152C, incubated two hours with chemical substance): 0.7
The level of expressed mRNA in the presence of chemical substance/The level of expressed mRNA in the absence of chemical substance (yeast gene YLR194C, incubated two hours with chemical substance): 2.1
The level of expressed mRNA in the presence of chemical substance/The level of expressed mRNA in the absence of chemical substance (yeast gene YLR324W, incubated two hours with chemical substance): 0.7
The level of expressed mRNA in the presence of chemical substance/The level of expressed mRNA in the absence of chemical substance (yeast gene YLR350W, incubated two hours with chemical substance): 1.2
The level of expressed mRNA in the presence of chemical substance/The level of expressed mRNA in the absence of chemical substance (yeast gene YLR387C, incubated two hours with chemical substance): 0.9
The level of expressed mRNA in the presence of chemical substance/The level of expressed mRNA in the absence of chemical substance (yeast gene YLR460C): 2.1
The level of expressed mRNA in the presence of chemical substance/The level of expressed mRNA in the absence of chemical substance (yeast gene YML117W, incubated two hours with chemical substance): 0.9
The level of expressed mRNA in the presence of chemical substance/The level of expressed mRNA in the absence of chemical substance (yeast gene YMR009W, incubated two hours with chemical substance): 2.3
The level of expressed mRNA in the presence of chemical substance/The level of expressed mRNA in the absence of chemical substance (yeast gene YMR067C, incubated two hours with chemical substance): 0.9
The level of expressed mRNA in the presence of chemical substance/The level of expressed mRNA in the absence of chemical substance (yeast gene YMR090W): 6.9
The level of expressed mRNA in the presence of chemical substance/The level of expressed mRNA in the absence of chemical substance (yeast gene YMR095C, incubated two hours with chemical substance): 1.1
The level of expressed mRNA in the presence of chemical substance/The level of expressed mRNA in the absence of chemical substance (yeast gene YMR097C, incubated two hours with chemical substance): 1.5
The level of expressed mRNA in the presence of chemical substance/The level of expressed mRNA in the absence of chemical substance (yeast gene YMR102C, incubated two hours with chemical substance): 1.0
The level of expressed mRNA in the presence of chemical substance/The level of expressed mRNA in the absence of chemical substance (yeast gene YMR107W, incubated two hours with chemical substance): 5.0
The level of expressed mRNA in the presence of chemical substance/The level of expressed mRNA in the absence of chemical substance (yeast gene YMR180C, incubated two hours with chemical substance): 1.2
The level of expressed mRNA in the presence of chemical substance/The level of expressed mRNA in the absence of chemical substance (yeast gene YMR184W, incubated two hours with chemical substance): 1.3
The level of expressed mRNA in the presence of chemical substance/The level of expressed mRNA in the absence of chemical substance (yeast gene YMR191W, incubated two hours with chemical substance): 1.3
The level of expressed mRNA in the presence of chemical substance/The level of expressed mRNA in the absence of chemical substance (yeast gene YMR295C, incubated two hours with chemical substance): 1.7
The level of expressed mRNA in the presence of chemical substance/The level of expressed mRNA in the absence of chemical substance (yeast gene YMR316W, incubated two hours with chemical substance): 3.2
The level of expressed mRNA in the presence of chemical substance/The level of expressed mRNA in the absence of chemical substance (yeast gene YNL044W, incubated two hours with chemical substance): 1.3
The level of expressed mRNA in the presence of chemical substance/The level of expressed mRNA in the absence of chemical substance (yeast gene YNL074C, incubated two hours with chemical substance): 0.9
The level of expressed mRNA in the presence of chemical substance/The level of expressed mRNA in the absence of chemical substance (yeast gene YNL092W, incubated two hours with chemical substance): 1.3
The level of expressed mRNA in the presence of chemical substance/The level of expressed mRNA in the absence of chemical substance (yeast gene YNL115C, incubated two hours with chemical substance): 0.7
The level of expressed mRNA in the presence of chemical substance/The level of expressed mRNA in the absence of chemical substance (yeast gene YNL156C, incubated two hours with chemical substance): 1.1
The level of expressed mRNA in the presence of chemical substance/The level of expressed mRNA in the absence of chemical substance (yeast gene YNL234W, incubated two hours with chemical substance): 1.1
The level of expressed mRNA in the presence of chemical substance/The level of expressed mRNA in the absence of chemical substance (yeast gene YNL281W, incubated two hours with chemical substance): 1.0
The level of expressed mRNA in the presence of chemical substance/The level of expressed mRNA in the absence of chemical substance (yeast gene YNL305C, incubated two hours with chemical substance): 0.9
The level of expressed mRNA in the presence of chemical substance/The level of expressed mRNA in the absence of chemical substance (yeast gene YNR068C, incubated two hours with chemical substance): 1.2
The level of expressed mRNA in the presence of chemical substance/The level of expressed mRNA in the absence of chemical substance (yeast gene YOL032W, incubated two hours with chemical substance): 1.3
The level of expressed mRNA in the presence of chemical substance/The level of expressed mRNA in the absence of chemical substance (yeast gene YOL036W, incubated two hours with chemical substance): 0.8
The level of expressed mRNA in the presence of chemical substance/The level of expressed mRNA in the absence of chemical substance (yeast gene YOL047C, incubated two hours with chemical substance): 1.4
The level of expressed mRNA in the presence of chemical substance/The level of expressed mRNA in the absence of chemical substance (yeast gene YOL071W, incubated two hours with chemical substance): 1.3
The level of expressed mRNA in the presence of chemical substance/The level of expressed mRNA in the absence of chemical substance (yeast gene YOL082W, incubated two hours with chemical substance): 1.0
The level of expressed mRNA in the presence of chemical substance/The level of expressed mRNA in the absence of chemical substance (yeast gene YOL083W, incubated two hours with chemical substance): 1.1
The level of expressed mRNA in the presence of chemical substance/The level of expressed mRNA in the absence of chemical substance (yeast gene YOL117W, incubated two hours with chemical substance): 1.0
The level of expressed mRNA in the presence of chemical substance/The level of expressed mRNA in the absence of chemical substance (yeast gene YOL131W, incubated two hours with chemical substance): 1.0
The level of expressed mRNA in the presence of chemical substance/The level of expressed mRNA in the absence of chemical substance (yeast gene YOL150C): 4.1
The level of expressed mRNA in the presence of chemical substance/The level of expressed mRNA in the absence of chemical substance (yeast gene YOL162W, incubated two hours with chemical substance): 2.0
The level of expressed mRNA in the presence of chemical substance/The level of expressed mRNA in the absence of chemical substance (yeast gene YOR019W, incubated two hours with chemical substance): 2.9
The level of expressed mRNA in the presence of chemical substance/The level of expressed mRNA in the absence of chemical substance (yeast gene YOR197W, incubated two hours with chemical substance): 0.8
The level of expressed mRNA in the presence of chemical substance/The level of expressed mRNA in the absence of chemical substance (yeast gene YPL087W, incubated two hours with chemical substance): 1.0
The level of expressed mRNA in the presence of chemical substance/The level of expressed mRNA in the absence of chemical substance (yeast gene YPL196W, incubated two hours with chemical substance): 1.3
The level of expressed mRNA in the presence of chemical substance/The level of expressed mRNA in the absence of chemical substance (yeast gene YPL206C, incubated two hours with chemical substance): 1.0
The level of expressed mRNA in the presence of chemical substance/The level of expressed mRNA in the absence of chemical substance (yeast gene YPL222W, incubated two hours with chemical substance): 0.9
The level of expressed mRNA in the presence of chemical substance/The level of expressed mRNA in the absence of chemical substance (yeast gene YPR023C, incubated two hours with chemical substance): 1.2
The level of expressed mRNA in the presence of chemical substance/The level of expressed mRNA in the absence of chemical substance (yeast gene YPR151C, incubated two hours with chemical substance): 2.3
